Measurements from patent US8324390B2, “Tetrazole-substituted anthranilamides as pesticides” (Bayer CropScience AG, priority 2008, dated 2012).
Read-outs that look alike come from different tables or passages of the source.

Key:
[1] = system: caterpillars of the armyworm (Spodoptera frugiperda); experiment: Spodoptera frugiperda test (SPODFR spray treatment); type: in vivo; details: for pest or weed control at 100 g/ha: Spodoptera frugiperda, foliar, read-out: effect in % (caterpillars killed)
Description: Solvent: 78.0 parts by weight of acetone

[2] = system: larvae of the mustard beetle (Phaedon cochleariae); experiment: Phaedon test (PHAECO spray treatment); details: for pest or weed control at 100 g/ha: Phaedon cochleariae, in Brassica rapa, foliar, read-out: effect in % (beetle larvae killed)
[3] = log P determination by HPLC (EEC Directive 79/831 Annex V.A8); type: physicochemical
Protocol: The measurements were carried out using an Agilent 1100 LC system with a 50*4.6 Zorbax Eclipse C18 1.8 μm column (oven temperature 55° C., flow rate 2.0 ml/min).
The following mobile phases were used:
Mobile phase A: acetonitrile+1000 μl of formic acid/l
Mobile phase B: Millipore water+900 μl of formic acid/l

[4] = application rate 100 g/ha, maize leaf discs
[5] = reversed-phase HPLC, Zorbax Eclipse C18 column, by HPLC according to EEC Directive 79/831 Annex V.A8, read-out: log P
[6] = reversed-phase HPLC, Zorbax Eclipse C18 column, determined by HPLC according to EEC Directive 79/831 Annex V.A8, read-out: log P

Structure (SMILES)	pest or weed control at 100 g/ha ([1]; in Zea mays) [%]	pest or weed control at 100 g/ha [2] [%]	chromatographic logP ([3]; log P)	pest or weed control at 100 g/ha [1, 4] [%]	further results
Cc1cc(C#N)cc(C(=O)NCC#N)c1NC(=O)c1cc(Cn2nnc(C(F)(F)C(F)(F)F)n2)nn1-c1ncccc1Cl [Example 210]	≥ 80	≥ 80	3.01	–	–
Cc1cc(Br)cc(C(=O)NC(C)C)c1NC(=O)c1cc(Cn2nnc(C(F)(F)F)n2)nn1-c1ncccc1C(F)(F)F [Example 249]	–	≥ 80	–	≥ 80	chromatographic logP [3, 5]: 3.76
Cc1cc(I)cc(C(=O)NC(C)C)c1NC(=O)c1cc(Cn2nnc(C(F)(C(F)(F)F)C(F)(F)F)n2)nn1-c1ncccc1Cl [Example 381]	≥ 80	≥ 80	4.44	–	–
CCNC(=O)c1cc(Br)cc(C)c1NC(=O)c1cc(Cn2nnc(C(F)(F)F)n2)nn1-c1ncccc1C(F)(F)F [Example 244]	–	≥ 80	–	≥ 80	chromatographic logP [3, 5]: 3.52
Cc1cc(C#N)cc(C(=O)NCCCN)c1NC(=O)c1cc(Cn2nnc(C(F)(F)F)n2)nn1-c1ncccc1Cl [Example 124]	≥ 80	≥ 80	1.63	–	–
Cc1cc(C#N)cc(C(=O)NCC2CC2(Cl)Cl)c1NC(=O)c1cc(Cn2nnnc2C(F)(F)F)nn1-c1ncccc1Cl (centres unmarked) [Example 190]	≥ 80	–	3.16	–	–
Cc1cc(C#N)cc(C(=O)NCC2CC2)c1NC(=O)c1cc(Cn2nnc(C(F)(C(F)(F)F)C(F)(F)F)n2)nn1-c1ncccc1Cl [Example 373]	–	≥ 80	–	≥ 80	chromatographic logP [3, 5]: 3.84
Cc1cc(F)cc(C(=O)NC(C)C)c1NC(=O)c1cc(Cn2nnc(C(F)(F)C(F)(F)F)n2)nn1-c1ncccc1Cl [Example 149]	≥ 80	≥ 80	3.59	–	–
Cc1cc(I)cc(C(=O)NC2CC2)c1NC(=O)c1cc(Cn2nnc(C(F)(C(F)(F)F)C(F)(F)F)n2)nn1-c1ncccc1Cl [Example 379]	≥ 80	≥ 80	4.18	–	–
CNC(=O)c1cc(Cl)cc(C)c1NC(=O)c1cc(Cn2nnnc2C(F)(F)C(F)(F)F)nn1-c1ncccc1Cl [Example 198]	≥ 80	≥ 80	3.1	–	–
Cc1cc(I)cc(C(=O)NC(C)C)c1NC(=O)c1cc(Cn2nnc(C(F)F)n2)nn1-c1ncccc1Cl [Example 277]	≥ 80	≥ 80	3.2	–	–
CCNC(=O)c1cc(I)cc(C)c1NC(=O)c1cc(Cn2nnc(C(F)(F)F)n2)nn1-c1ncccc1Br [Example 408]	–	≥ 80	–	≥ 80	chromatographic logP [3, 6]: 3.51
Cc1cc(C#N)cc(C(=O)NC(C#N)C2CC2)c1NC(=O)c1cc(Cn2nnc(C(F)(F)F)n2)nn1-c1ncccc1Cl (centres unmarked) [Example 321]	≥ 80	≥ 80	3.05	–	–
Cc1cc(C)c(NC(=O)c2cc(Cn3nnc(C(F)(F)F)n3)nn2-c2ncccc2Cl)c(C(=O)NC(C)C)c1 [Example 79]	≥ 80	–	3.29	–	–
CSC[C@H](C)NC(=O)c1cc(C#N)cc(C)c1NC(=O)c1cc(Cn2nnc(C(F)F)n2)nn1-c1ncccc1Cl [Example 268]	≥ 80	–	2.77	–	–
CSC[C@H](C)NC(=O)c1cc(Cl)cc(Cl)c1NC(=O)c1cc(Cn2nnc(C(F)F)n2)nn1-c1ncccc1Cl [Example 288]	≥ 80	–	3.13	–	–
CNC(=O)c1cc(F)cc(C)c1NC(=O)c1cc(Cn2nnc(C(F)F)n2)nn1-c1ncccc1Cl [Example 292]	≥ 80	–	2.21	–	–
CNC(=O)c1cc(Cl)cc(C)c1NC(=O)c1cc(Cn2nnnc2C(F)(F)F)nn1-c1ncccc1Cl [drawing 597]	–	–	–	–	Kill in %/7 days ([2]; 4 g/ha, 7 days): 67%
Cc1cc(C#N)cc(C(N)=O)c1NC(=O)c1cc(Cn2nnc(C(F)(F)F)n2)nn1-c1ncccc1Br [Example 324]	–	–	–	≥ 80	chromatographic logP [3, 5]: 2.46
Cc1cc(C#N)cc(C(=O)NC(C)C2CCC2)c1NC(=O)c1cc(Cn2nnnc2C(F)(F)F)nn1-c1ncccc1Cl (centres unmarked) [Example 194]	–	≥ 80	3.25	–	–
Cc1cc(Cl)cc(C(=O)NC(C)(C)C)c1NC(=O)c1cc(Cn2nnc(C(F)(F)F)n2)nn1-c1ccccc1Cl [Example 534]	–	–	–	≥ 80	chromatographic logP [3, 6]: 4.36
CNC(=O)c1cc(Cl)cc(C)c1NC(=O)c1cc(Cn2nnnc2-c2ccc(C(F)(F)F)cc2)nn1-c1ncccc1Cl [drawing 602]	–	–	–	–	Kill in %/7 days ([1]; 4 g/ha, 7 days): 33%
Cc1cc(Br)cc(C(=O)NC(C)(C)C)c1NC(=O)c1cc(Cn2nnnc2C(F)(F)F)nn1-c1ncccc1C(F)(F)F [Example 458]	–	–	–	≥ 80	chromatographic logP [3, 6]: 3.78
